Counter-ions that a name gives are not always drawn. Like-named read-outs stand apart in the source and are kept apart here.
Assays:
[1] = system: acetic acid-induced colitis; settings: rat, in vivo; cited from earlier work
[2] = Octanol-water partition, shake flask (log Papp); assay type: physicochemical; settings: pH 7.4, Tris buffer
Experimental: The partition values between octanol and water (at pH 7.4, Tris buffer) were determined using a “shake flask” direct method of measuring log Papp values (Sangster et al., Octanol-Water Partition Coefficients: Fundamentals and Physical Chemistry; John Wiley and Sons: West Sussex, England, 1997; Vol. 2). The fraction of compound in the octanol is then expressed as log Papp. […] This is likely due to the presence of the aromatic nitrogen, a moderately good hydrogen bond accepter, on the DFT analogs.

[3] = Job's plot stoichiometry of Fe(III) complexes; assay type: binding; settings: [DFT analog]+[Fe(III)]=1.0 mM, Tris-HCl pH 7.4; theoretical 0.667 for 2:1
Experimental: Solutions containing DFT analog/Fe(III) at different ratios were prepared such that [DFT analog]+[Fe(III)]=1.0 mM in Tris-HCl buffer at pH 7.4. The theoretical mole fraction maximum for a 2:1 DFT analog:Fe complex is 0.667 (indicated by an arrow).
In each instance, the DFT analogs formed 2:1 complexes with Fe(III). […] A 100 mM Tris HCl buffer was used to maintain the pH at 7.4. Solutions containing different DFT analog/Fe(III) ratios were prepared by mixing appropriate volumes of 1.0 mM DFT analog solution and 1.0 mM Fe(III)-nitriloacetate (NTA) in Tris-HCl buffer. The 1.0 mM Fe(III)-NTA solution was prepared immediately prior to use by dilution of a 41.6 mM Fe(III)-NTA stock solution with the Tris HCl buffer, whereas the DFT analog stock solution was prepared by dissolving the DFT analog as its monosodium salt in Tris HCl buffer at pH 7.4. The Fe(III)-NTA stock solution was prepared by mixing equal volumes of […] of FeCl3 and 180 mM trisodium NTA. The iron content of the Fe(III)-NTA solution was verified by atomic absorption spectrophotometry (AAS).

[4] = system: urinary Kim-1 excretion; settings: for survival of dosing period: po twice daily 237 μmol/kg/dose (474 μmol/kg/d), up to 7 d, rats with normal iron stores
Experimental: The compounds were administered to the rats po as their monosodium salts, prepared as described above, twice daily at a dose of 237 μmol/kg/dose (474 μmol/kg/d) for up to 7 d. The studies were performed on rats with normal iron stores. The rats were fasted overnight and were given the first dose of the compound first thing in the morning. The rats were fed ˜3 h post-dose and had access to food for ˜5 h before being fasted overnight.
The rats were housed in individual metabolic cages. […] A baseline (day 0) urine sample was collected and assessed for its Kim-1 content; each animal served as its own control. The urine was collected chilled as previously described (Bergeron et al., “Desferrithiocin Analog Iron Chelators: Iron Clearing Efficiency, Tissue Distribution, and Renal Toxicity.” Biometals, 2011, 24, 239-258).
The chilled urine was collected, vortexed, and warmed to room temperature; any sediment in the samples was allowed to settle. Kim-1 content was assessed using a Rat Kim-1 Rapid Test Kit according to the manufacturer's instructions. The result was read using a ReaScan Test Reader. […] Data are presented as the mean±the standard error of the mean; p-values were generated via a one-tailed Student's t-test in which the inequality of variances was assumed; and a p-value of <0.05 was considered significant.
Assessment of chelator-induced impaired renal function has traditionally relied on the detection of a rise in blood urea nitrogen (BUN) and/or serum creatinine (SCr). However, because of the functional reserve of the kidney, these parameters are often unreliable indicators of acute kidney injury; the ultimate answer requires histopathology. […] BioAssay Works has recently developed RenaStick, a direct lateral flow immunochromato-graphic assay, which allows for the rapid detection (less than 30 minutes) and quantitation of urinary Kim-1 (rat) or KIM-1 (human) excretion (Vaidya et al., “A Rapid Urine Test for Early Detection of Kidney Injury.” Kidney. Int. 2009, 76, 108-114). […] The studies were performed on rats with normal iron stores; each animal served as their own control.

[5] = Compound-plasma binding, rodent plasma; assay type: in vitro ADME; settings: 37° C., 4 h, 3,000 MWCO filter
Excerpt: (§1) Each sample was then passed through a Millipore Amicon Ultra regenerated cellulose filter (3,000 MWCO).

[6] = Compound-plasma binding, primate plasma; assay type: in vitro ADME; settings: 37° C., 4 h, 3,000 MWCO filter
Excerpt: as §1

[7] = system: iron excretion; test: Iron-clearing efficiency in iron-overloaded primates (fecal and urine samples); assay type: in vivo, Cebus apella monkeys; settings: primates po / rodents po
Experimental: At least 20 half-lives, 60 days (Wood et al., “The Metabolism of Iron-Dextran Given As a Total-Dose Infusion to Iron Deficient Jamaican Subjects.” Br. J. Hamaetol. 1968, 14, 119-129), elapsed before any of the animals were used in experiments evaluating iron-chelating agents.
Briefly, the collections began 4 days prior to the administration of the test compound and continued for an additional 5 days after the compound was given. Iron concentrations were determined by flame absorption spectroscopy as presented in other publications (Bergeron et al., “A Comparative Evaluation of Iron Clearance Models.” Ann. N.Y. Acad. Sci. 1990, 612, 378-393; Bergeron et al., “Synthesis and Biological Evaluation of Naphthyldesferrithiocin Iron Chelators.” J. Med. Chem. 1996, 39, 1575-1581).
In the text below, the term “iron-clearing efficiency” (ICE) is used as a measure of the amount of iron excretion induced by a chelator. The ICE, expressed as a percent, is calculated as (compound-induced iron excretion/theoretical iron excretion)×100. To illustrate, the theoretical iron excretion after administration of one millimole of desferrioxamine B mesylate (DFO) (FIG. 3), a hexadentate chelator that forms a 1:1 complex with Fe(III), is one milli-g-atom of iron. Two millimoles of desferrithiocin (DFT) (Table 1), a tridentate iron chelator that forms a 2:1 complex with Fe(III), are required for the theoretical excretion of one milli-g-atom of iron. The theoretical iron outputs of the chelators were generated on the basis of a 2:1 compound:iron complex. The efficiencies in the rats and monkeys were calculated as set forth elsewhere (Bergeron et al., “Effects of C-4 Stereochemistry and C-4′ Hydroxylation on the Iron Clearing Efficiency and Toxicity of Desferrithiocin Analogs.” J. Med. Chem. 1999, 42, 2432-2440; Bergeron et al., “HBED: A Potential Alternative to Deferoxamine for Iron-Chelating Therapy.” Blood 1998, 91, 1446-1452).

[8] = system: iron excretion; settings: po 150 μmol/kg, cited from earlier work
[9] = system: iron excretion; settings: po 150 μmol/kg, cited from earlier work; remark: listed apart in the source
[10] = po once daily 384 μmol/kg/d (100 mg/kg/d), cited from earlier work
[11] = oral; cited from earlier work
[12] = administered twice daily; cited from earlier work
[13] = system: urinary Kim-1 excretion; settings: cited from earlier work; for urinary Kim-1: 237 μmol/kg twice daily
[14] = po twice daily 237 μmol/kg/dose × 7 d
[15] = day 8, after 237 μmol/kg twice daily × 7 d

CC(=O)N(O)CCCCCNC(=O)CCC(=O)N(O)CCCCCNC(=O)CCC(=O)N(O)CCCCCN [DFO, desferrioxamine B mesylate]
effect on acetic acid-induced colitis [1]: prevent acetic acid-induced colitis

COCCOCCOc1ccnc(C2=N[C@@](C)(C(=O)O)CS2)c1O [I-3, (S)-4,5-Dihydro-2-[3-hydroxy-4-(3,6-dioxaheptyloxy)-2-pyridinyl]-4-methyl-4-thiazolecarboxylic Acid]
LogPapp [2]: −1.38
observed mole fraction maximum in Job's plot [3]: 0.677
survival of dosing period [4]: All of the animals survived the compound dosing regimen
BUN and SCr [4, 14]: well within the normal range
urinary Kim-1 excretion versus baseline (day 0) [4, 14]: remained within error of that of the baseline (day 0) levels
renal toxicity (Kim-1, BUN, SCr), summary ([4]; rat, in vivo): little to no impact on renal function
binding of the compound to plasma [5]: little, if any, binding
binding of the compound to plasma [6]: little, if any, binding

C[C@]1(C(=O)O)CSC(c2ncccc2O)=N1 [compound 1, desferrithiocin]
Performance ratio (PR), mean ICEprimates/ICErodents [7]: 2.9
LogPapp [2]: −1.77
fold increase of urinary Kim-1 over baseline ([4]; after one day, 237 μmol/kg/dose twice daily po): ~10 fold
survival of dosing period [4]: None of the rats survived
SCr ([4]; two moribund rats sacrificed after four days of 237 μmol/kg/dose twice daily, normal 0.4-1): 5.1 ± 0.3 mg/dL
BUN ([4]; two moribund rats sacrificed after four days of 237 μmol/kg/dose twice daily, normal 9-30): 139 ± 8 mg/dL
Rodent Iron-Clearing Efficiency (%) ([8]; solubilized in 40% Cremophor RH-40/water): 5.5±3.2%
relative percentages of the iron excreted in the bile and urine ([8]; rodents, 40% Cremophor RH-40/water, bile/urine): 93/7
Primate Iron-Clearing Efficiency (%) [9]: 16.1±8.5%
relative percentages of the iron excreted in the feces and urine ([9]; primates, feces/urine): 78/22
mortality ([10]; planned 10-d, rats with normal iron stores): All of the rats were dead by day 5
nephrotoxicity [10]: severely nephrotoxic
nephrotoxicity [11]: severe nephrotoxicity

C[C@]1(C(=O)O)CSC(c2ccc(O)cc2O)=N1 [compound 3]
LogPapp [2]: −1.05
nephrotoxicity in patients [12]: induced proximal tubule nephrotoxicity
urinary Kim-1 ([13]; after three days): 69±47 ng/kg/24 h
BUN [13, 15]: 32 ± 13 mg/dL
SCr [13, 15]: 1.3 ± 1.0 mg/dL
urinary Kim-1 ([13]; end of the 7 d dosing period): 189±187 ng/kg/24 h
renal toxicity (Kim-1, BUN, SCr), summary ([13]; rats): some nephrotoxicity
